Assay results: publication PMC8624133, “10th Trends in Medical Mycology Held on 8 to 11 October 2021, Aberdeen, Scotland, Organized by the European Confederation of Medical Mycology (ECMM)” (Journal of Fungi, 2021)
Values after ≈ are worked out from the molar mass of the structure shown. Values joined by “and” are separate entries in the source; they are usually repeats but may differ in a detail not shown here. Equal values may be shown once. Read-outs that look alike come from different tables or passages of the source.

Tests used:
R. delemar 99–880 = test: CLSI M38 in vitro susceptibility; type: cell-based, Rhizopus delemar; details: Rhizopus delemar, read-out: MIC at 100% inhibition of growth
Method: Methods & Materials: In vitro susceptibility was conducted by the CLSI M38 method using a clinical isolate of Rhizopus delemar (a common cause of mucormycosis). ICR mice were immunosuppressed with cyclophosphamide and cortisone acetate on days −2, +3, and +8, relative to infection with intratracheally instilled R. delemar. […] Mice survival through Day +21 served as the primary endpoint.

Rhizopus arrhizus = test: E test; type: cell-based
C. auris [1] = test: Postantifungal effect (PAFE); type: cell-based, Candida auris; details: 2 and 4 mg/L, 1 h exposure, six blood isolates
Method: Materials & Methods: PAFE experiments were performed in microtitre plates, with six C. auris clinical blood isolates (Hospital La Fe, Valencia, Spain). […] Cell pellets were re-suspended in RPMI medium and added back to the microtitre plates. Sample for viable counts were taken at 0, 2, 4, 6, 8, 24 and 48 h after re-suspension, plated in triplicate onto Sabouraud dextrose agar and incubated for 24–48 h at 37 °C. Experiments were performed in duplicate for each isolate on different days. PAFE was calculated as follows: PAFE = T − C. Where “T” is the time needed by the treated fungal cultures to growth 1 log after drug removal and “C” is the time needed by the control group to growth 1 log after last washout. Additionally, maximum log reductions of time-kill and PAFE experiments were compared and used to calculate a PAFE/time-kill index to determine the percentage of cell killing that could be attributed to the PAFE.

C. glabrata isolates = test: Rapid XTT assay based on EUCAST E.Def 7.3; type: cell-based, Candida glabrata
Candida auris isolates = test: microbe, parasite or virus in culture; type: cell-based; details: Candidozyma auris; […]; IQR given; read-out: median MIC
C. auris [2] = test: ARIA surveillance, CLSI M27 broth microdilution; type: cell-based, Candida auris; details: CDC tentative breakpoints
C. tropicalis = type: cell-based, Candida tropicalis; details: all successive strains
Sporothrix brasiliensis = test: Murine subcutaneous sporotrichosis model; type: in vivo, Balb/c mice; details: oral gavage once a day, 30 days; ITZ 50 mg/kg; DD 1, 5 or 10 mg/kg
Method: Materials & Methods: 50 Balb/c mice, male, five to seven-week-old, were subcutaneous infected (left footpad) by a clinical isolate of S. brasiliensis (5.4 × 10^7 yeast/mice). Treatments started seven days post-inoculation (p.i) in all five groups (10 mice/each): G1 control group (placebo—receiving just the diluent of the drugs), G2 treatment group (itraconazole—ITZ 50 mg/kg); G3 to G5 DD treatment groups, 1, 5 and 10 mg/kg, respectively. All mice were treated once a day by oral gavage, for 30 consecutive days. Physical conditions and behavior were daily evaluated, and individual weight was weekly determined. At the 32nd day p.i. (48 h after the end of the treatments) animals were euthanasied and lung, liver, brain, kidneys, testicle and footpad were recovered aseptically and homogenized to mycological analysis. Fungal burden in each organ was measured by quantitatively counting colony-forming units (CFU). The determination of colony forming units (CFU)/gram of tissue (g) of S. brasiliensis in internal organs of groups were compared by non-parametric tests using Kruskal-Wallis combined with Wilcoxon. The weight loss assay was calculated considering the percentage of loss and/or increase between the value corresponding to the fungal inoculation day and to the end of the treatment.

[3] = tested on: clinical Trichophyton spp. isolates; test: Checkerboard microdilution based on EUCAST; type: cell-based; details: for MIC: Trichophyton, read-out: geometric mean MIC, drug alone
Method: Materials & Methods: The combination has been tested against 9 terbinafine-susceptible and 7 terbinafine-resistant clinical Trichophyton spp. isolates from India. In vitro interactions were evaluated by a microdilution checkerboard technique based on the EUCAST reference method for antifungal susceptibility testing. The mode of interaction between terbinafine and itraconazole was determined by the fractional inhibitory concentration index (FICI). The FICI was interpreted as FICI ≤ 0.5 = synergy, FICI > 0.5–4 = no interaction, and FICI > 4.0 = antagonism.

Trichophyton spp. = test: Agar-based screening method; type: cell-based; details: 0.5 McF, 5 days, 30 °C
Method: Inter-experimental variation was evaluated by testing 10 isolates on three different days. Single-centre validation: After determining the optimal conditions for the agar screening method, 112 molecularly identified Trichophyton spp. clinical isolates were tested.

[4] = tested on: A. fumigatus isolates from BAL; test: Sensititre YeastOne Y010, read according to CLSI (2020); type: cell-based, Aspergillus fumigatus
Method: Materials & Methods: Retrospective evaluation of antifungal susceptibility for A. fumigatus isolates from bronchoalveolar lavage (BAL) fluid in pts with invasive pulmonary aspergillosis was performed. All isolates were obtained from hematological pts admitted to National Research Center for Hematology (Moscow) between 2016 and 2020. All A. fumigatus species were identified by morphology, matrix-assisted laser desorption ionization time of flight mass spectrometry. The azole-resistant strains were identified by ITS, β-tubulin, calmodulin and actine gene sequencing. […] The MIC of antifungal agents were read according to the CLSI (2020). Cyp51A was sequenced to establish the most common resistance mechanisms embedded in azole-resistant A. fumigatus.

Scedosporium apiospermum = test: EUCAST reference method MIC; type: cell-based
Method: Case presentation: A patient presented with a bursitis of their left elbow. Six months before they were treated with lymphodepleting chemotherapy directly followed by B-cell associated CD19-specific chimeric antigen receptor (CAR) T cell therapy for recurrence of follicular lymphoma. They were considered immunocompromised, with total neutrophils and lymphocytes slightly below normal levels, absent B-cells, and a treatment associated persistent hypogammaglobulinaemia. Four weeks before presentation at our hospital they contacted their GP because of swelling and pain of their left elbow. Their GP aspirated fluid from their elbow, injected steroids and started antibiotics, but now there was recurrence of swelling and pain. Bursitis without arthritis was diagnosed by a rheumatologist and the bursa was surgically opened and drained, relieving pus. The patient was started on oral flucloxacillin and sent home. Two days later the culture of the pus from the bursa grew white colonies on a Sabouraud dextrose agar plate, showing long conidophores with large oval conidia on microscopy. […] Over the next few weeks the bursitis symptoms diminished. […] Voriconazole is considered first line treatment for Scedosporium infections. […] Eight weeks later there were no signs of bursitis and posaconazole was discontinued.

Asp. fumigatus = test: Triazole resistance agar screening, four-well plate; details: RPMI agar, 1 µg/mL, 7 isolates
Method: All the isolates were identified phenotypically. […] Fungal spores were suspended in normal saline (0.85%) and adjusted to 0.5 McFarland and 50 μL was plated in each well. […] Plates were incubated at 35–37 °C for 72 h in ambient air. The presence or absence of growth was observed visually at 24 h, 48 h, and 72 h.

[5] = 7 terbinafine-resistant isolates
[6] = 9 terbinafine-susceptible isolates

Q: Which MIC (R. delemar 99–880) does the source give for `C[C@@H]1[C@H](O)[C@@H](C)/C=C/C=C/C=C/C=C/C=C/C=C/C=C/[C@H](O[C@@H]2O[C@H](C)[C@@H](O)[C@H](N)[C@@H]2O)C[C@@H]2O[C@](O)(C[C@@H](O)C[C@@H](O)[C@H](O)CC[C@@H](O)C[C@@H](O)CC(=O)O[C@H]1C)C[C@H](O)[C@H]2C(=O)O` [amphotericin B] here?
A: 0.06 µg/mL (≈ 0.0649 µM)

Q: And the MIC (Rhizopus arrhizus)?
A: > 32 µg/mL

Q: And the PAFE (C. auris [1])?
A: 3.5 to 6.5 h

Q: With `OC(Cn1cncn1)(Cn1cncn1)c1ccc(F)cc1F` [fluconazole] as the compound, how does the “XTT-absorbance in drug-treated wells” value (C. glabrata isolates) read?
A: 0.67 ± 0.15 and 0.51 ± 0.08

Q: And the MIC (Candida auris isolates)?
A: 48 µg/mL (≈ 157 µM)

Q: And the susceptible (C. auris [2])?
A: 56.3%

Q: And the susceptibility category (C. tropicalis)?
A: susceptible

Q: And the “increase of clearance per 100 g increase in actual bodyweight” value (in vivo)?
A: 16%

Q: What about the “decrease of clearance per 10 µmol/L increase in creatinine concentration” value (once postnatal age was above 1 week) of the same compound?
A: 12%

Q: What about the volume of distribution (one-compartment model, typical infant of 0.87 kg) of the same compound?
A: 0.844 L

Q: What about the estimated clearance (one-compartment model, typical infant of 0.87 kg, serum creatinine 60 µmol/L, 41 preterm neonates, 146 plasma samples) of the same compound?
A: 0.0147 L/h

Q: With `CCC(C)n1ncn(-c2ccc(N3CCN(c4ccc(OCC5COC(Cn6cncn6)(c6ccc(Cl)cc6Cl)O5)cc4)CC3)cc2)c1=O` (centres unmarked) [itraconazole] as the compound, how does the “fungal burden of internal organs vs placebo group” value (Sporothrix brasiliensis) read?
A: lower fungal burden

Q: And the “MIC range, drug alone” value [3, 5]?
A: 0.0625 to 0.5 µg/mL

Q: And the “MIC range, drug alone” value [3, 6]?
A: 0.125 to 0.5 µg/mL

Q: What about the MIC [3, 5] of the same compound?
A: 0.19 µg/mL

Q: What about the MIC [3, 6] of the same compound?
A: 0.3 µg/mL

Q: And the “optimal agar concentration preventing growth of WT isolates” value (Trichophyton spp.)?
A: 1 mg/L

Q: Which “isolates with elevated MIC” value ([4]; 2 of 35) does the source give for `C[C@@H](c1ncncc1F)[C@](O)(Cn1cncn1)c1ccc(F)cc1F` [voriconazole] here?
A: 5.7%

Q: What about the MIC ([4]; Aspergillus fumigatus, BAL, read-out: elevated minimum inhibitory concentrations (MIC)) of the same compound?
A: > 8 µg/mL

Q: What about the MIC (Scedosporium apiospermum; first isolate from bursa pus) of the same compound?
A: 0.5 µg/mL (≈ 1.43 µM)

Q: And the MIC (Scedosporium apiospermum; isolate two months later, under posaconazole)?
A: 1 µg/mL (≈ 2.86 µM)

Q: And the “isolates with growth only in voriconazole well, n (%)” value (Asp. fumigatus; 48 h)?
A: 0

Q: And the “isolates with growth only in voriconazole well, n (%)” value (Asp. fumigatus; 72 h)?
A: 3 (42.85)
